According to patent EP4678638A1, “NEW E3 UBIQUITIN LIGASE LIGAND, PROTEIN DEGRADATION AGENT AND USE THEREOF” (priority 2023, dated 2024):

How the values were obtained:
[1] = test system: SW620; assay: CCK-8 proliferation, SW620; assay type: cell-based; conditions: Homo sapiens, SW-620; CCK-8; 96 hours; read-out: Inhibitory activity (IC50) on tumor cell proliferation, SW620
Procedure, shortened: (§1)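 Tumor cells were cultured at 37°C with 5% CO2, seeded, and after 24h treated with compounds at 10 concentrations starting at 10µM (5-fold serial dilutions).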

[2] = biological target: T1, BCR-ABL (Homo sapiens, UniProt P00519+P11274+Q96SW2, E27K); assay: Western blot degradation of BCR-ABL (K562 Cell); assay type: cell-based; conditions: Table D15
T1 construct: evaluate the effects of the compounds of the present disclosure on the expression of target proteins in cells; endogenous in cells; host or cells: K562
T1 sequence (P11274+P00519 fused, stated change not applied): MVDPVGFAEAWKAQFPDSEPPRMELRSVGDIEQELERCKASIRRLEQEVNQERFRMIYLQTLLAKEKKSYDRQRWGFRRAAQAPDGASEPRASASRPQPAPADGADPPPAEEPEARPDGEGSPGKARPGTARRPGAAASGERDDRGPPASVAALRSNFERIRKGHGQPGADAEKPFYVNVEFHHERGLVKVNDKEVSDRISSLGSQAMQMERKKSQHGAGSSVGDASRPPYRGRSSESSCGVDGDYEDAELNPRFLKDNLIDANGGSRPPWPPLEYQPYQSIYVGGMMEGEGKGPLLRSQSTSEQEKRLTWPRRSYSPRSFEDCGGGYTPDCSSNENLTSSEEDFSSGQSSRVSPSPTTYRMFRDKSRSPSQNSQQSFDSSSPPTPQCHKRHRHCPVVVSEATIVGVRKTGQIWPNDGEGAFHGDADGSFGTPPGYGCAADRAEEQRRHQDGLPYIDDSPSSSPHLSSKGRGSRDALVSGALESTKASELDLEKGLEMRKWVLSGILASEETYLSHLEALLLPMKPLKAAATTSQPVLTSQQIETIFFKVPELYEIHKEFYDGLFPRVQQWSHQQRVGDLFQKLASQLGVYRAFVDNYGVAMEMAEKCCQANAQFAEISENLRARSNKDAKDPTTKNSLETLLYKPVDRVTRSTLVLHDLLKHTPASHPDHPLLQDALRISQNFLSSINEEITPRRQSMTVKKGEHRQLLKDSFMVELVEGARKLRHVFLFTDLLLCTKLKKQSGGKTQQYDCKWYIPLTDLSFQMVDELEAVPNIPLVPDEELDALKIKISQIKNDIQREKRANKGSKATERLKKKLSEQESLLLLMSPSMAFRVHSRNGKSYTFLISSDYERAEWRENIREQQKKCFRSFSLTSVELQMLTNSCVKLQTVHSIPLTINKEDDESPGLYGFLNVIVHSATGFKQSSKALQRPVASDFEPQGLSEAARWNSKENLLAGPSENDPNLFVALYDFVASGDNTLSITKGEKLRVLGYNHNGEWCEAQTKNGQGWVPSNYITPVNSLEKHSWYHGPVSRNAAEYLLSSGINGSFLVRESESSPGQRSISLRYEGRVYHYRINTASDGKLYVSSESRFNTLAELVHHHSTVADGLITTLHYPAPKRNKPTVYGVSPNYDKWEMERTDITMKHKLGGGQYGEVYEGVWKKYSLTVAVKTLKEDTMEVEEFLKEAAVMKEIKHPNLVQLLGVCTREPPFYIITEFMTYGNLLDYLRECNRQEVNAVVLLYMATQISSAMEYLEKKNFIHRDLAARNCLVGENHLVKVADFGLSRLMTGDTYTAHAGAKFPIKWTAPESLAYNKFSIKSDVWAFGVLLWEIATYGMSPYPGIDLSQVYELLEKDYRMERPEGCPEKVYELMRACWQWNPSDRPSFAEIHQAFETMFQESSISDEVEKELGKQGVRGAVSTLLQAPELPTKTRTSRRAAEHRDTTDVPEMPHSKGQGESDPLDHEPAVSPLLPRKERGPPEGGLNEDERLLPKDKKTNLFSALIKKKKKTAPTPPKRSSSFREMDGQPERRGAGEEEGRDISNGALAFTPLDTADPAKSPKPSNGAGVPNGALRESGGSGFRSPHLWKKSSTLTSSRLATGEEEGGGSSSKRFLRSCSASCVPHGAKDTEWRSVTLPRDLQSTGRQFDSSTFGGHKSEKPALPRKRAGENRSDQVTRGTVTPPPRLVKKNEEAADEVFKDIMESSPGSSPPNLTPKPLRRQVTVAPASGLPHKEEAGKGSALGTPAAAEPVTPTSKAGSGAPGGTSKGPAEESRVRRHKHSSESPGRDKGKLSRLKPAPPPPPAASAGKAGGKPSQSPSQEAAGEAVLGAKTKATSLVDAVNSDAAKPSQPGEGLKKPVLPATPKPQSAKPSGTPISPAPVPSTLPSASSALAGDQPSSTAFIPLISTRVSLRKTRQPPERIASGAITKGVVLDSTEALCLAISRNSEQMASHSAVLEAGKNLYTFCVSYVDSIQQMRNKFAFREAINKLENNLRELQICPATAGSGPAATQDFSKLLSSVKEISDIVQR
T1 sequence (Q16531 whole entry, stated change not applied, further chain): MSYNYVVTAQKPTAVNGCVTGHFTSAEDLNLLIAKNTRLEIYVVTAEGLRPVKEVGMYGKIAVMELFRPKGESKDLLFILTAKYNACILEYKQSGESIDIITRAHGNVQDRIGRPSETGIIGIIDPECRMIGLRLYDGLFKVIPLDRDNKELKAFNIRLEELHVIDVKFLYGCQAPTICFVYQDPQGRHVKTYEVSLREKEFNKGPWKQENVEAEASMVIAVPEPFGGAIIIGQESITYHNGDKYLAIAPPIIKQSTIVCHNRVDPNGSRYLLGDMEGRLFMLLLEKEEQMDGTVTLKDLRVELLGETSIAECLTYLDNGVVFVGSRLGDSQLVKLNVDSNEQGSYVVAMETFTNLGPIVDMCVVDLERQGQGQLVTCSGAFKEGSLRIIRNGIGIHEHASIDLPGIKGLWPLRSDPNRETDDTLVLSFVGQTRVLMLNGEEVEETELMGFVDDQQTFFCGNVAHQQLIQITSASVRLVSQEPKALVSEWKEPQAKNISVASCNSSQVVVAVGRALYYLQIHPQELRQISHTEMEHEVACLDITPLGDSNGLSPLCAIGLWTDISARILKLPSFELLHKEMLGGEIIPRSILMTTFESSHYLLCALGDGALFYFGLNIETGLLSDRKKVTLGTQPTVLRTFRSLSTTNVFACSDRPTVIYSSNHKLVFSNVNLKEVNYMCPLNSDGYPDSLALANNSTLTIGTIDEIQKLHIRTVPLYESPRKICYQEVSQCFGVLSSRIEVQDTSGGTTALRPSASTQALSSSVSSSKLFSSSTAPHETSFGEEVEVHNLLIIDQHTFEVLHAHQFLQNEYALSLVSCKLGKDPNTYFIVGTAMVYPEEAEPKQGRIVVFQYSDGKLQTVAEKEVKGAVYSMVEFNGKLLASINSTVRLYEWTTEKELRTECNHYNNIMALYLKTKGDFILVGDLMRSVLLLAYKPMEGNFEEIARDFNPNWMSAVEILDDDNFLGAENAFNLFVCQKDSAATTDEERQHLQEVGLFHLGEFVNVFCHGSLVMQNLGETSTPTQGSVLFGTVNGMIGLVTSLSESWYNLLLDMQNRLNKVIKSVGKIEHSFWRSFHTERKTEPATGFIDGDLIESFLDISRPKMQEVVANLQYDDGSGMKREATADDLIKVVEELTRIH
T1 sequence (Q96SW2 whole entry, stated change not applied): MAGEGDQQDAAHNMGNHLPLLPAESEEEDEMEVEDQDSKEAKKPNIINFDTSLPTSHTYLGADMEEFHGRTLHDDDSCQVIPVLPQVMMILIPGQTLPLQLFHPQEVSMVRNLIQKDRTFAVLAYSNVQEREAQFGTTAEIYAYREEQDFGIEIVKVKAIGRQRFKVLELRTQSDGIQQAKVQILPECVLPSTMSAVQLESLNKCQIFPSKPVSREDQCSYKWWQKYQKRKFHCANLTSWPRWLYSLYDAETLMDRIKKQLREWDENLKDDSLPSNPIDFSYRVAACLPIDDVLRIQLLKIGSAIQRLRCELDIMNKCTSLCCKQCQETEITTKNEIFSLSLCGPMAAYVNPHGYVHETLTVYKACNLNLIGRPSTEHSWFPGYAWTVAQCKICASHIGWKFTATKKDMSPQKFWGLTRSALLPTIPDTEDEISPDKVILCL
Description: (§2) Conventional Western blot assay was performed to evaluate the effects of the compounds of the present disclosure on the expression of target proteins in cells.
(§3) (1) Cell Seeding and Protein Harvesting: The selected cells were processed according to the cell seeding procedure and protein harvesting procedure in Table III-2. Table III-2 Cell Seeding and Protein Harvesting Procedures
(§4) (2) To the collected supernatant, 5X SDS sample loading buffer was added, followed by denaturation at 95°C for 5 minutes. The denatured samples were then separated by SDS-PAGE electrophoresis on a polyacrylamide gel. Proteins were transferred to a nitrocellulose membrane (0.45 µm NC membrane), blocked with blocking buffer at room temperature for 1 hour, and subjected to antibody incubation and development procedures according to the antibody manufacturer's instructions (Cell Signaling Technology).
(§5) Half-Maximal Degradation Concentration value (the drug concentration required for degrading proteins by 50%, abbreviated as DC50) reads method: comparing the grayscale values of Western blot bands from drug-treated samples with those from blank DMSO-treated controls, and identifying the drug concentration range at which the grayscale value is half that of the DMSO-treated control bands.
(§6) DC50 values can be calculated using ImageJ software to measure grayscale values of Western blot bands from drug-treated samples. The concentration-response curve is fitted to estimate the drug concentration corresponding to half the grayscale value.
(§7) Target protein remaining (%) refers to the percentage of target protein remaining in hPBMC cells after treatment with protein degrader compounds.
(§8) Calculation method for target protein remaining (%): Use ImageJ software to measure grayscale values of Western blot bands from drug (protein degrader)-treated samples. The grayscale value of drug-treated bands is divided by that of internal control protein bands, and the resulting quotient is normalized to obtain the relative percentage of remaining target protein after protein degrader treatment. […]

[3] = test system: MGC-803; assay: CCK-8 proliferation, MGC-803 (heads: MGC80-3, MGC803); assay type: cell-based, Human; conditions: Homo sapiens, MGC-803; CCK-8; 72 hours; read-out: Inhibitory activity (IC50) on tumor cell proliferation, MGC803
Procedure, shortened: as §1

[4] = test system: MM.1R; assay: CCK-8 proliferation, MM.1R; assay type: cell-based; conditions: CCK-8, 72 hours, read-out: Inhibitory activity (IC50) on tumor cell proliferation, MM.1R
Procedure, shortened: as §1

[5] = test system: K562; assay: CCK-8 proliferation, K562; assay type: cell-based; conditions: Homo sapiens, 72 or 96 hours, read-out: Inhibitory activity (IC50) on tumor cell proliferation, K562
Description: (§9) The tumor cells used herein were cultured in a cell culture medium listed in table A1 at 37°C in an incubator with 5% CO2. Prior to experimentation, all cell lines used were correctly identified by STR profiling, and tested negative for mycoplasma contamination using a mycoplasma detection kit through routine screenings. Table A1. Tumor cells and cell culture medium used in the present disclosure
(§10) IC50 values of the compounds of the present disclosure (including the compounds in Table 1, and compounds of examples) were measured using the Meilun Cell Counting Kit-8 kit from Dalian Meilun Biotech Co., Ltd. Assay details are as follows: tumor cells were seeded in a 96-well plate at a density listed in Table A2. After 24h, 100 µL of the inoculated cells were treated with 0.5µL of the compounds of the present disclosure (including the compounds in Tables 1 and 2, and compounds of examples) at 10 different successively decreasing concentrations (starting at the highest concentration of 10µM; 5-fold serial dilutions). After the cells were treated with the compounds of the present disclosure for a period of time, the cell viability detection reagent was added to the culture medium for cell viability assessment according to the instructions provided with the CCK-8 kit. […] The growth inhibition of the compounds of the present disclosure on cells was plotted by Prism Graphpad software, and the IC50 values of the compounds of the present disclosure were calculated therefrom. […] Seeding protocol and treatment time for tumor cells

[6] = test system: CCRF-CEM; assay: CCK-8 proliferation, CCRF-CEM; assay type: cell-based, Human; conditions: Homo sapiens, CCRF-CEM; CCK-8; 96 hours; read-out: Inhibitory activity (IC50) on tumor cell proliferation, CCRF-CEM
Procedure, shortened: as §1

[7] = test system: Jurkat; assay: CCK-8 proliferation, Jurkat; assay type: cell-based, Human; conditions: Homo sapiens, Jurkat; CCK-8; 96 hours; read-out: Inhibitory activity (IC50) on tumor cell proliferation, Jurkat
Procedure, shortened: as §1

[8] = test system: CAL-62; assay: CCK-8 proliferation, CAL-62; assay type: cell-based; conditions: Homo sapiens, 72 hours, read-out: Inhibitory activity (IC50) on tumor cell proliferation, CAL-62
Description: as §9, §10

[9] = test system: Vcap; assay: CCK-8 proliferation, Vcap; assay type: cell-based; conditions: Homo sapiens, 96 hours, read-out: Inhibitory activity (IC50) on tumor cell proliferation, Vcap
Description: as §9
IC50 values of the compounds of the present disclosure (including the compounds in Table 1, and compounds of examples) were measured using the Meilun Cell Counting Kit-8 kit from Dalian Meilun Biotech Co., Ltd. Assay details are as follows: tumor cells were seeded in a 96-well plate at a density listed in Table A2. After 24h, 100 µL of the inoculated cells were treated with 0.5µL of the compounds of the present disclosure (including the compounds in Tables 1 and 2, and compounds of examples) at 10 different successively decreasing concentrations (starting at the highest concentration of 10µM; 5-fold serial dilutions). […] The growth inhibition of the compounds of the present disclosure on cells was plotted by Prism Graphpad software, and the IC50 values of the compounds of the present disclosure were calculated therefrom. […]

[10] = test system: TRK; assay: Western blot degradation of TRK / NTRK (SK-N-AS Cell); assay type: cell-based; conditions: Table D14
Description: as §2, §3, §4, §5, §6, §7, §8

[11] = biological target: T2, human Cereblon WT GST-tagged protein (Homo sapiens, UniProt Q96SW2); assay: CRBN binding, HTRF (CEREBLON BINDING kit); conditions: Table II-2, CRBN binding screening, HTRF
T2 construct: purchased CISBIO 64BDCRBNPEH
T2 sequence (Q96SW2 whole entry): as the sequence (Q96SW2 whole entry, stated change not applied) above
Procedure, shortened: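 After 3 h at room temperature, emission at 665 and 620 nm was measured in a homogeneous time-resolved fluorescence format. Compounds competed with a Thalidomide-Re probe for GST-tagged wild-type human CRBN, which was labelled with a Eu anti-GST antibody.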

[12] = test system: LNcap; assay: CCK-8 proliferation, LNcap; assay type: cell-based; conditions: Homo sapiens, LNCaP; CCK-8; 96 hours; read-out: Inhibitory activity (IC50) on tumor cell proliferation, Lncap
Procedure, shortened: as §1

[13] = test system: CFPAC-1; assay: CCK-8 proliferation, CFPAC-1; assay type: cell-based; conditions: Homo sapiens, 72 or 96 hours, read-out: Inhibitory activity (IC50) on tumor cell proliferation, CFPAC-1
Description: as §9, §10

[14] = test system: H2228; assay: CCK-8 proliferation, NCI-H2228 (H2228); assay type: cell-based; conditions: Homo sapiens, NCI-H2228; CCK-8; 96 hours; read-out: Inhibitory activity (IC50) on tumor cell proliferation, H2228
Procedure, shortened: as §1

[15] = test system: H1975; assay: CCK-8 proliferation, NCI-H1975 (H1975); assay type: cell-based, Human; conditions: Homo sapiens, NCI-H1975; CCK-8; 96 hours; read-out: Inhibitory activity (IC50) on tumor cell proliferation, H1975
Procedure, shortened: as §1

[16] = test system: TMD8; assay: CCK-8 proliferation, TMD8; assay type: cell-based; conditions: Homo sapiens, TMD8; CCK-8; 72 hours; read-out: Inhibitory activity (IC50) on tumor cell proliferation, TMD8
Procedure, shortened: as §1

[17] = test system: PC-9; assay: CCK-8 proliferation, PC-9; assay type: cell-based, Human; conditions: Homo sapiens, PC-9; CCK-8; 96 hours; read-out: Inhibitory activity (IC50) on tumor cell proliferation, PC-9
Procedure, shortened: as §1

O=C1CCC(c2ccc(CN3CCC(N4CCN(c5ncc(C(=O)Nc6ccc(OC(F)(F)Cl)cc6)cc5-c5cc[nH]n5)CC4)CC3)cc2F)C(=O)N1 (stereo not drawn) [GT-04059, N-(4-(chlorodifluoromethoxy)phenyl)-6-(4-(1-(4-(2,6-dioxopiperidin-3-yl)-3-fluorobenzyl)piperidin-4-yl)piperazin-1-yl)-5-(1H-pyrazol-3-yl)nicotinamide]
IC50 [1]: 100 to 500 nM
Degradation of substrate protein BCR-ABL (substrate protein remaining %) [2]: A (A is defined as 0% ≤ substrate protein remaining % ≤ 80%)
IC50 [3]: 500 to 1000 nM

O=C1CCC(c2ccc(CN3CCC(N4CCN(c5ncc(C(=O)Nc6ccc(OC(F)(F)Cl)cc6)cc5-c5cc[nH]n5)CC4)CC3)cc2)C(=O)N1 (stereo not drawn) [GT-04058, N-(4-(chlorodifluoromethoxy)phenyl)-6-(4-(1-(4-(2,6-dioxopiperidin-3-yl)benzyl)piperidin-4-yl)piperazin-1-yl)-5-(1H-pyrazol-3-yl)nicotinamide]
Degradation of substrate protein BCR-ABL (substrate protein remaining %) [2]: A (A is defined as 0% ≤ substrate protein remaining % ≤ 80%)

NC(=O)c1ccc(N2CCC(N3CCN(Cc4ccc(C5CCC(=O)NC5=O)c(F)c4)CC3)CC2)nc1-c1ccc(Oc2ccccc2)cc1 (stereo not drawn) [GT-03754, 6-(4-(4-(4-(2,6-dioxopiperidin-3-yl)-3-fluorobenzyl)piperazin-1-yl)piperidin-1-yl)-2-(4-phenoxyphenyl)nicotinamide]
IC50 [1]: 100 to 500 nM
IC50 [4]: 100 to 500 nM
IC50 [5]: 100 to 500 nM

O=C1CCC(c2ccc(CN3CCN(c4ccc([C@@H]5c6ccc(O)cc6CC[C@@H]5c5ccccc5)cc4)CC3)cc2)C(=O)N1 (stereo partly drawn) [GT-03856, 3-(4-((4-(4-((1R,2S)-6-hydroxy-2-phenyl-1,2,3,4-tetrahydronaphthalen-1-yl)phenyl)piperazin-1-yl)methyl)phenyl)piperidine-2,6-dione]
IC50 [6]: 100 to 500 nM
IC50 [7]: 100 to 500 nM
IC50 [8]: 100 to 500 nM
IC50 [9]: 500 to 1000 nM

CN(Cc1ccc(C2CCC(=O)NC2=O)cc1)C1CCN(c2cccc(-c3cnc4ccc(N5CCC[C@@H]5c5cccc(F)c5)nn34)n2)CC1 (stereo partly drawn) [GT-03898, 3-(4-(((1-(6-(6-((R)-2-(3-fluorophenyl)pyrrolidin-1-yl)imidazo[1,2-b]pyridazin-3-yl)pyridin-2-yl)piperidin-4-yl)(methyl)amino)methyl)phenyl)piperidine-2,6-dione]
Degradation of substrate protein TRK (substrate protein remaining %) [10]: A (A is defined as 0% ≤ substrate protein remaining % ≤ 80%)
inhibition at 0.5 µM ([11]; at 0.5µM, read-out: Inhibition rate (%) at 0.5µM): 60 to 80%
inhibition at 2 µM ([11]; at 2 µM, read-out: Inhibition rate (%) at 2 µM): 80 to 100%

Cc1ccc(C(=O)Nc2ccc(CN3CCN(Cc4ccc(C5CCC(=O)NC5=O)cc4)CC3)c(C(F)(F)F)c2)cc1C#Cc1cnc2cccnn12 (stereo not drawn) [GT-03936]
IC50 [6]: 100 to 500 nM
IC50 [12]: 100 to 500 nM
IC50 [1]: 100 to 500 nM
IC50 [7]: 50 to 100 nM
IC50 [13]: 100 to 500 nM
IC50 [3]: 100 to 500 nM

Cc1nc(Nc2ncc(C(=O)Nc3c(C)cccc3Cl)s2)cc(N2CCN(CCO)CC2)n1 [Dasatinib, reference compound]
IC50 [6]: > 10000 nM
IC50 [12]: 5000 to 10000 nM
IC50 [1]: 1000 to 5000 nM
IC50 [7]: 1000 to 5000 nM
IC50 [13]: 100 to 500 nM
IC50 [3]: 5000 to 10000 nM

CN(Cc1ccc(C2CCC(=O)NC2=O)c(F)c1)C1CCN(c2ccc(C(=O)Nc3n[nH]c4ccc(Cc5cc(F)cc(F)c5)cc34)c(NC3CCOCC3)c2)CC1 (stereo not drawn) [GT-03965, N-(5-(3,5-difluorobenzyl)-1H-indazol-3-yl)-4-(4-((4-(2,6-dioxopiperidin-3-yl)-3-fluorobenzyl)(methyl)amino)piperidin-1-yl)-2-((tetrahydro-2H-pyran-4-yl)amino)benzamide]
Degradation of substrate protein TRK (substrate protein remaining %) [10]: A (A is defined as 0% ≤ substrate protein remaining % ≤ 80%)

CN(Cc1ccc(C2CCC(=O)NC2=O)cc1)C1CCN(c2ccc(C(=O)Nc3n[nH]c4ccc(Cc5cc(F)cc(F)c5)cc34)c(NC3CCOCC3)c2)CC1 (stereo not drawn) [GT-03964, N-(5-(3,5-difluorobenzyl)-1H-indazol-3-yl)-4-(4-((4-(2,6-dioxopiperidin-3-yl)benzyl)(methyl)amino)piperidin-1-yl)-2-((tetrahydro-2H-pyran-4-yl)amino)benzamide]
Degradation of substrate protein TRK (substrate protein remaining %) [10]: A (A is defined as 0% ≤ substrate protein remaining % ≤ 80%)

Cc1ccc(C(=O)Nc2ccc(CN3CCN(Cc4ccc(C5CCC(=O)NC5=O)c(F)c4)CC3)c(C(F)(F)F)c2)cc1C#Cc1cnc2cccnn12 (stereo not drawn) [GT-03937, N-(4-((4-(4-(2,6-dioxopiperidin-3-yl)-3-fluorobenzyl)piperazin-1-yl)methyl)-3-(trifluoromethyl)phenyl)-3-(imidazo[1,2-b]pyridazin-3-ylethynyl)-4-methylbenzamide]
IC50 [6]: 50 to 100 nM
IC50 [12]: 50 to 100 nM
IC50 [1]: 50 to 100 nM
IC50 [7]: 50 to 100 nM
IC50 [13]: 100 to 500 nM
Degradation of substrate protein BCR-ABL (substrate protein remaining %) [2]: A (A is defined as 0% ≤ substrate protein remaining % ≤ 80%)
IC50 [3]: 100 to 500 nM

C=CC(=O)N1CCC(c2ccc(C(N)=O)c(-c3ccc(Oc4ccccc4)cc3)n2)CC1 [Orelabrutinib, reference compound]
IC50 [14]: > 10000 nM
IC50 [1]: > 10000 nM
IC50 [15]: > 10000 nM
IC50 [16]: 5000 to 10000 nM
IC50 [4]: > 10000 nM
IC50 [5]: > 10000 nM
IC50 [17]: > 10000 nM

NC(=O)c1ccc(N2CCC(N3CCN(Cc4ccc(C5CCC(=O)NC5=O)cc4)CC3)CC2)nc1-c1ccc(Oc2ccccc2)cc1 (stereo not drawn) [GT-03753, 6-(4-(4-(4-(2,6-dioxopiperidin-3-yl)benzyl)piperazin-1-yl)piperidin-1-yl)-2-(4-phenoxyphenyl)nicotinamide]
IC50 [1]: 500 to 1000 nM
IC50 [4]: 500 to 1000 nM
IC50 [5]: 100 to 500 nM
